Laboratory results: patent EP0041795A2, “Injectable composition of rapamycin” (AYERST, MCKENNA AND HARRISON INC., priority 1980, dated 1981)

Experiment: Solubility of rapamycin
Type: physicochemical

## CO[C@H]1C[C@@H]2CC[C@@H](C)[C@@](O)(O2)C(=O)C(=O)N2CCCC[C@H]2C(=O)O[C@H]([C@H](C)C[C@@H]2CC[C@@H](O)[C@H](OC)C2)CC(=O)[C@H](C)/C=C(\C)[C@@H](O)[C@@H](OC)C(=O)[C@H](C)C[C@H](C)/C=C/C=C/C=C/1C [Rapamycin]
Aqueous solutions
  solubility in aqueous solutions: virtually insoluble
Most surfactants, including the nonionic surfactants
  solubility in surfactants: insoluble
Rapamycin per se, polyoxyethylated glycerin hydroxy fatty acids
  solubility in polyoxyethylated glycerin hydroxy fatty acids: does not readily go into solution
